Series [1] relates to murine leukemia cells (L1210/0). Description: Inhibition of proliferation of murine leukemia cells L1210/0. Type of series: cell-based. The following applies: for IC50: Mus musculus, L1210/0, read-out: IC50 L1210/0. Here is the method: (§1) The compounds were tested for antitumor activity via the inhibitory effects on the proliferation of murine leukemia cells (L1210/0), murine mammary carcinoma cells (FM3A) and human T-lymphocyte cells (Molt4/C8), (CEM/0). […] Compound A1 and Compound A4 show no effect at concentrations up to 200 ppm.

Series [2] deals with E. coli ATCC 25922. As to the kind of experiment: microbe, parasite or virus in culture. Type of series: cell-based. As to conditions: Escherichia coli, ATCC25922, negative control = 100, read-out: % of growth at 25 PPM compared to negative control, E. coli ATCC 25922.
The test system of series [3] is C. neoformans ATCC 90112 IHEM 9558. As to the kind of experiment: microbe, parasite or virus in culture. Type of series: cell-based. As to conditions: Cryptococcus neoformans, ATCC90112, negative control = 100, read-out: % of growth at a dose of 25 PPM compared to the negative control, C. neoformans ATCC 90112 IHEM 9558.
Series [4] relates to A. fumigatus IHEM 2895. As to the kind of experiment: microbe, parasite or virus in culture. Type of series: cell-based. As to conditions: Aspergillus fumigatus, IHEM2895, negative control = 100, read-out: % of growth at a dose of 25 PPM compared to the negative control, A. fumigatus IHEM 2895.
For series [5], the system named is T. mentagrophytes ATCC 9233 IHEM 10342. As to the kind of experiment: microbe, parasite or virus in culture. It counts as cell-based. As to conditions: Trichophyton mentagrophytes, ATCC9233, negative control = 100, read-out: % of growth at a dose of 25 PPM compared to the negative control, T. mentagrophytes ATCC 9233 IHEM 10342.
Series [6] concerns VV. As to the kind of experiment: VV-induced cytopathicity in human embryo fibroblast E6SM. Type of series: cell-based, Vaccinia Virus. As to conditions: for EC50: Orthopoxvirus vaccinia, E6SM, read-out: EC50 VV (E6SM). On the technique in general: Damage to the host cells serves as the signal in cytopathic effect assays.
The subject of series [7] is P. aeruginosa ATCC 27853 LMG 16217. Description: microbe, parasite or virus in culture. It counts as cell-based. The following applies: Pseudomonas aeruginosa, negative control = 100, read-out: % of growth at 25 PPM compared to negative control, P. aeruginosa ATCC 27853 LMG 16217.
Series [8] relates to murine mammary carcinoma cells (FM3A). Description: Inhibition of proliferation of murine mammary carcinoma cells FM3A. Type of series: cell-based. As to conditions: Mus musculus, cytostatic activity, 50% inhibitory concentration, read-out: IC50 FM3A/0. Here is the method:
as §1

Series [9] concerns HSV-1 (KOS). Description: HSV-1 (KOS)-induced cytopathicity in human embryo fibroblast E6SM. Type of series: cell-based, Herpes Simplex Virus. The following applies: Human alphaherpesvirus 1.
For series [10], the system named is VZV 07/1. Description: microbe, parasite or virus in culture. It counts as cell-based, Varicella Zoster Virus. As to conditions: Human alphaherpesvirus 3, HEL, read-out: EC50 VZV (HEL) 07/1.
Series [11] concerns VZV OKA. As to the kind of experiment: microbe, parasite or virus in culture. Type of series: cell-based, Varicella Zoster Virus. The following applies: Human alphaherpesvirus 3, HEL, read-out: EC50 VZV (HEL) OKA.
For series [12], the system named is HIV-1 (IIIB). As to the kind of experiment: microbe, parasite or virus in culture. Type of series: cell-based. The following applies: Human immunodeficiency virus 1, IIIB, CCRF-CEM; HIV-induced cytopathicity in human CEM cell cultures.
The subject of series [13] is HSV-2 (G). Description: HSV-2 (G)-induced cytopathicity in human embryo fibroblast E6SM. It counts as cell-based, Herpes Simplex Virus. As to conditions: Human alphaherpesvirus 2.
For series [14], the system named is HIV-2 (ROD). Description: HIV-2 (ROD)-induced cytopathicity in human CEM cell cultures. Type of series: cell-based. The following applies: Human immunodeficiency virus 2, CCRF-CEM.
Series [15] has as its system CMV David Strain. As to the kind of experiment: CMV plaque formation in HEL cells, David strain. It counts as cell-based, human Cytomegalovirus. The following applies: Human betaherpesvirus 5, virus plaque formation, virus input 100 PFU.
Series [16] concerns Candida albicans ATCC 24433 IHEM 10284. Description: microbe, parasite or virus in culture. It counts as cell-based. The following applies: ATCC24433, negative control = 100, read-out: % of growth at a dose of 25 PPM compared to the negative control, Candida albicans ATCC 24433 IHEM 10284.
Series [17] has as its system E. faecalis ATCC 29212 LMG 8222. As to the kind of experiment: microbe, parasite or virus in culture. It counts as cell-based. As to conditions: Enterococcus faecalis, negative control = 100, read-out: % of growth at 25 PPM compared to negative control, E. faecalis ATCC 29212 LMG 8222.
In series [18] the test system is S. aureus ATCC 29213 LMG 10147. Description: microbe, parasite or virus in culture. It counts as cell-based. As to conditions: Staphylococcus aureus, negative control = 100, read-out: % of growth at 25 PPM compared to negative control, S. aureus ATCC 29213 LMG 10147.
Series [19] relates to CMV AD-169 Strain. Description: CMV plaque formation in HEL cells, AD-169 strain. As to conditions: for IC50: Human betaherpesvirus 5, AD169, virus plaque formation, HEL cells, virus input 100 PFU; for activity against CMV (in words): strain not specified. It counts as cell-based, human Cytomegalovirus.
Series [20] relates to human T-lymphocyte cells (Molt4/C8). As to the kind of experiment: Inhibition of proliferation of human T-lymphocyte cells Molt4/C8. Type of series: cell-based. As to conditions: cytostatic activity, 50% inhibitory concentration. How it is done: as §1
Series [21] relates to human T-lymphocyte cells (CEM/0). Description: Inhibition of proliferation of human T-lymphocyte cells CEM/0. Type of series: cell-based. As to conditions: CCRF-CEM, cytostatic activity, 50% inhibitory concentration. How it is done: as §1
For series [22], the system named is C. perfringens ATCC 13124. It counts as cell-based, Clostridium perfringens. The following applies: negative control = 100.

≈ marks a conversion by molar mass, not a printed value.

Take `CO[C@@H]1[C@@H]2O[Si](C(C)C)(C(C)C)O[Si](C(C)C)(C(C)C)OC[C@H]2O[C@H]1c1ccccc1` [Compound A3, β-D-1-Deoxy-1-phenyl-2-O-methyl-3,5-O-(1,1,3,3-tetraisopropyldisiloxanylidene)-ribofuranose]: the IC50 was determined as 18 ± 0.5 mg/L (≈ 38.6 µM) in series [1]; 15 mg/L (≈ 32.1 µM) in [8]; 1.3 mg/L (≈ 2.79 µM) in series [15]; 1.3 mg/L (≈ 2.79 µM) in series [19]; 19 ± 2 mg/L (≈ 40.7 µM) in series [20]; 20 ± 4 mg/L (≈ 42.8 µM) in series [21]. Moreover, the “cytostatic activity (in words)” value in [1] (text summary over L1210/0, FM3A, Molt4/C8, CEM/0) is given as “small cytostatic activity”. Moreover, the activity at 25 ppm in [2] is 91.3%; in series [3], 81.1%; in series [4], 37.5%; in series [5] it was 64.4%; in series [7], 87.6%; in series [16] it was 62.2%. Moreover, the activity at 25 ppm came out at 94.2% in [17] and 92.5% in series [18]. In addition, the EC50 in series [6] is over 16 mg/L; in series [9], over 16 mg/L; in series [10], over 2 mg/L; in series [11] it was over 2 mg/L; in series [12], over 4 mg/L; in series [13] it was over 16 mg/L. Besides, the EC50 in series [14] is over 4 mg/L. In series [19], the “activity against CMV (in words)” value is “significant activity”.

For `CO[C@@H]1[C@H](O)[C@@H](CO)O[C@H]1c1ccccc1` [Compound A4, β-D-1-Deoxy-1-phenyl-2-O-methyl-ribofuranose], the IC50 in series [1] is over 200 mg/L; in [8] it was over 200 mg/L; in [15], over 50 mg/L; in [19], over 50 mg/L; in series [20], over 200 mg/L; in series [21] it was over 200 mg/L. In addition, in series [1] (at concentrations up to 200 ppm, L1210/0, FM3A, Molt4/C8, CEM/0), the “effect on cell proliferation (in words)” value is on record as “no effect”. Further, the activity at 25 ppm in series [2] was found to be 92.8%; in series [3], 99.9%; in series [4] it was 70.9%; in [5] it was 79.7%; in series [7], 93.5%; in series [16], 110%. For the same molecule, the results for the activity at 25 ppm in series [17] and in series [18] were 95.4% and 96.9%, respectively. Further, the EC50 in [6] was over 400 mg/L; in series [9], over 400 mg/L; in series [10] it was over 50 mg/L; in series [11], over 50 mg/L; in series [12] it was over 100 mg/L; in series [13], over 400 mg/L. Moreover, in series [14], the EC50 was over 100 mg/L.

In the case of `CO[C@@H]1[C@@H]2O[C@H](c3ccccc3)OC[C@H]2O[C@H]1c1ccccc1` [Compound A5, β-D-1-Deoxy-1-phenyl-2-O-methyl-3,5-O-benzylidene-ribose], the “% of growth at 25 PPM compared to negative control, C. perfringens ATCC 13124” value (from here on “% of growth at 25 PPM”) in series [22] is recorded as 95.0%. In addition, the activity at 25 ppm in series [2] came out at 124%; in series [3], 76%; in [4], 57%; in series [5], 66%; in [7], 91%; in series [16], 120%. Moreover, the activity at 25 ppm in series [17] and in series [18] was 92% in each case. For the same molecule, the “activity against CMV (in words)” value in [19] was “slight”.

As to `CC(C)[Si]1(C(C)C)OC[C@H]2OC(c3ccccc3)C[C@@H]2O[Si](C(C)C)(C(C)C)O1` (stereo partly drawn) [Compound A6 A + B, α-β-D-1,2-dideoxy-1-phenyl-3,5-O-(1,1,3,3-tetraisopropyldisiloxanylidene)-ribofuranose], the “% of growth at 25 PPM” value in series [22] is recorded as 98.0%. Also, the activity at 25 ppm stood at 94% in series [2]; 102% in [3]; 54% in series [4]; 56% in [5]; 92% in series [7]; 85% in [16]. The activity at 25 ppm in series [17] and in [18] was 95% each time.

As for `CC(=O)OC[C@H]1O[C@@H](c2ccccc2)C[C@@H]1OC(C)=O` [Compound A7, β-D-1,2-dideoxy-1-phenyl-ribofuranose-3,5-diacetate], in series [22], the “% of growth at 25 PPM” value is 95.4%. In addition, the activity at 25 ppm was 94.8% in series [2]; 67.8% in [3]; 95% in series [4]; 83% in [5]; 92.7% in [7]; 83.4% in series [16]. Besides, the activity at 25 ppm in series [17] came out at 98.1%; in series [18], 91.2%. Also, the EC50 in series [6], in series [9] and in [13] was over 400 mg/L each time. The IC50 in series [15] and in series [19] was over 100 mg/L each time.

Take `OC[C@H]1O[C@@H](c2ccccc2)C[C@@H]1O` [Compound A8, β-D-1,2-dideoxy-1-phenyl-ribofuranose]: the melting point was in the range of 89 to 91 °C. Besides, the “% of growth at 25 PPM” value in series [22] is recorded as 96.2%. Also, in series [2], the activity at 25 ppm came to 99.2%. Moreover, the activity at 25 ppm in [3] worked out at 84.8%. Also, the activity at 25 ppm in series [4] stood at 107%. The activity at 25 ppm in [5] stood at 95%. Further, the EC50 in series [6] is over 400 mg/L. In [7], the activity at 25 ppm was 92.7%. In series [9], this molecule showed an EC50 of over 400 mg/L. In series [13], this molecule yielded an EC50 of over 400 mg/L. This molecule also gave an IC50 in [15] of over 100 mg/L. Further, the activity at 25 ppm in [16] is 92.4%. Moreover, the activity at 25 ppm in [17] is 95.5%. In addition, in [18], the activity at 25 ppm is 92.3%. This molecule had an IC50 in [19] of over 100 mg/L.

Regarding `CC1(C)O[C@H]2O[C@H](COCc3ccccc3)[C@H](OCc3ccccc3)[C@H]2O1` [Compound A9, α-D-1,2-O-isopropylidene-3,5-O-dibenzyl-xylofuranose], the “% of growth at 25 PPM” value in [22] turned out to be 95.1%. Further, the activity at 25 ppm in series [2] turned out to be 95.6%; in [3], 55.1%; in series [4], 74%; in series [5], 92%; in series [7], 93%; in [16], 85.9%. Moreover, the activity at 25 ppm was found to be 102% in [17] and 93.7% in series [18]. For the same molecule, the EC50 in series [6] is 48 mg/L (≈ 130 µM); in series [9] it was over 80 mg/L; in series [10] it was over 80 mg/L; in series [11] it was over 80 mg/L; in series [13] it was over 80 mg/L. In addition, the “activity against VV (in words)” value in [6] (Table 2) is “slight activity”. The IC50 in series [15] was 7.6 mg/L (≈ 20.5 µM); in series [19], 10.5 mg/L (≈ 28.3 µM). Moreover, the “activity against CMV (in words)” value in [19] is reported as “significant activity”.

What is called melting point is the temperature of the solid-liquid transition.
